Where two headings read alike, the source gives them in different places.
Key:
[1] = biological target: T1, NR1/NR2B receptor (Rattus norvegicus, UniProt P35439+Q00960); assay: Test of binding with NMDA receptor (NR1/NR2B receptor): competition with [3H]-Ifenprodil on rat cerebral cortex membrane specimen
T1 construct: from tissue; host or cells: rat cerebral cortex membranes (male Slc: Wistar rat)
Description: Test of Binding with NMDR Receptor (NR1/NR2B Receptor)
Using Ifenprodil which is an antagonist specific for a NR1/NR2B subtype receptor as a ligand, an experiment of competition between a receptor and a test compound was performed.
Using a male Slc: Wistar rat as an animal, a brain was isolated after decapitation, and a cerebral cortex was fractionated. The cerebral cortex was homogenized with a 20-fold amount of an ice-cooled 50 mM Tris/HCl buffer (pH 7.4), and the homogenate was centrifuged at 4° C. and 27,500×g for 10 minutes. The resulting precipitate was suspended in the same buffer, and this was again centrifuged. This operation was repeated for three times, the resulting precipitate was suspended in a buffer, and this was stored at −80° C. Immediately before an experiment, the frozen suspension was thawed at room temperature, this was centrifuged at 4° C. and 27,500×g for 10 minutes, and the resulting precipitate was suspended in a buffer. Further, the suspension was diluted 10-fold with a buffer, and this was used as a membrane specimen in an experiment. In a binding experiment, to 470 μl of the membrane specimen were added […] of each of test compounds having different concentrations, 10 μl of a labeled ligand [^3H]-Ifenprodil and 10 μl GBR-12909, followed by incubation at an ice temperature for 120 minutes. A concentration of [^3H]-Ifenprodil of the labeled ligand was finally 5 nM, and a concentration of GBR-12909 was finally 3 μM. For measuring a total binding amount, DMSO as a solvent was used and, for measuring a non-specific binding amount, 100 μM Ifenprodil was used. GBR-12909 was added in order to block binding of [^3H]-Ifenprodil to non-polyamine-sensitive site. After incubation, a bound formand a free foramwere separated using Whatman GF/C filter (manufactured by Whatman), and the filter was washed with 2.5 ml ice-cooled buffer four times. The filter was immersed in liquid scintillation (Cryasol I, manufactured by Nacalai tesque), and radioactivity (dpm) was measured with a liquid scintillation counter. From a measured value, a binding inhibition rate (%) was obtained by the following equation, and a dose at which binding is inhibited 50% (IC50) was calculated. A formula of GBR-12909 (vanoxerine) is shown below.
Binding inhibition rate(%)=100−[(binding amount in the presence of test compound−non-specific binding amount)/(total binding amount−non-specific binding amount)]×100

[2] = biological target: T2, NMDA receptor (NR1 subunit and NR2B subunit) (Mus musculus, UniProt P35438+Q01097); assay: Measurement of expression of NMDA receptor and Ca ion influx amount (glutamic acid/glycine-induced, HEK293 cell co-expressing NR1 and NR2B subunits, Fluo-3/AM); type: cell-based
T2 construct: expressed in transfected cells; host or cells: HEK293 cells, transient transfection with pcDNA3.1 plasmids
Description: Measurement of Expression of NMDA Receptor and Ca Ion Influx Amount
A complementary DNA (cDNA) of a mouse NMDA receptor subunit was transiently introduced into a HEK293 cell and, after 1 day from introduction, change in a glutamic acid/glycine-induced intracelluar Ca amount was measured using a Ca ion reactive fluorescent coloring matter.
The HEK293 cell was cultured, and passaged using a modified Dulbecco's Eagle medium (DMEM, low glucose).
The HEK293 cell (20,000/well) was seeded on a 96-well plate, a NR1 subunit and a NR2B subunit of the NMDA receptor incorporated into the pcDNA3.1 plasmid were transiently introduced into a cell, and the subunits were co-expressed. An introduction amount of a DNA was 0.025 μg in the case of the NR1 subunit, and 0.075 μg in the case of NR2B subunit per well. For the cell after introduction, cell death was inhibited using 50 μM of the NMDA receptor antagonist MK-801.
For adjusting a test compound and washing a cell, Krebs/Ringer/Hepes buffer (KRH, Ca: 5 mM) was used.
After 1 day from introduction, the NMDA receptor antagonist MK-801 was washed out using the KRH buffer, and a Ca ion indication fluorescent coloring matter Fluo-3/AM was made to be taken into the cell. Ca ion influx was induced with 20 μM glutamic acid/2 μM glycine. Change in a fluorescent amount due to Ca ion influx into the cell was measured at excitation of 480 nm using a fluorescent imaging system FDSS 3000.
From a measured value of the test compound, a Ca ion influx inhibition rate (%) was obtained by the following equation, and a dose at which influx is inhibited 50% (IC50) was calculated.
Ca ion influx inhibition rate(%)=100−[(fluorescent amount in the presence of test compound−background fluorescent amount)/(total fluorescent amount−background fluorescent)]×100

[3] = [3H]-Ifenprodil 5 nM, GBR-12909 3 μM, rat cerebral cortex membranes, ice temperature 120 minutes, read-out: NR2B (IC50 μM)
[4] = Ca ion influx induced with 20 μM glutamic acid/2 μM glycine, HEK293 cell with mouse NR1/NR2B, read-out: Ca2+ IC50
[5] = same binding test, read-out: IC50 (binding with NR1/NR2B receptor)
[6] = same Ca ion influx test, read-out: IC50 (Ca ion influx inhibition)

T2 sequence (Q01097 27-1482, other chains not shown): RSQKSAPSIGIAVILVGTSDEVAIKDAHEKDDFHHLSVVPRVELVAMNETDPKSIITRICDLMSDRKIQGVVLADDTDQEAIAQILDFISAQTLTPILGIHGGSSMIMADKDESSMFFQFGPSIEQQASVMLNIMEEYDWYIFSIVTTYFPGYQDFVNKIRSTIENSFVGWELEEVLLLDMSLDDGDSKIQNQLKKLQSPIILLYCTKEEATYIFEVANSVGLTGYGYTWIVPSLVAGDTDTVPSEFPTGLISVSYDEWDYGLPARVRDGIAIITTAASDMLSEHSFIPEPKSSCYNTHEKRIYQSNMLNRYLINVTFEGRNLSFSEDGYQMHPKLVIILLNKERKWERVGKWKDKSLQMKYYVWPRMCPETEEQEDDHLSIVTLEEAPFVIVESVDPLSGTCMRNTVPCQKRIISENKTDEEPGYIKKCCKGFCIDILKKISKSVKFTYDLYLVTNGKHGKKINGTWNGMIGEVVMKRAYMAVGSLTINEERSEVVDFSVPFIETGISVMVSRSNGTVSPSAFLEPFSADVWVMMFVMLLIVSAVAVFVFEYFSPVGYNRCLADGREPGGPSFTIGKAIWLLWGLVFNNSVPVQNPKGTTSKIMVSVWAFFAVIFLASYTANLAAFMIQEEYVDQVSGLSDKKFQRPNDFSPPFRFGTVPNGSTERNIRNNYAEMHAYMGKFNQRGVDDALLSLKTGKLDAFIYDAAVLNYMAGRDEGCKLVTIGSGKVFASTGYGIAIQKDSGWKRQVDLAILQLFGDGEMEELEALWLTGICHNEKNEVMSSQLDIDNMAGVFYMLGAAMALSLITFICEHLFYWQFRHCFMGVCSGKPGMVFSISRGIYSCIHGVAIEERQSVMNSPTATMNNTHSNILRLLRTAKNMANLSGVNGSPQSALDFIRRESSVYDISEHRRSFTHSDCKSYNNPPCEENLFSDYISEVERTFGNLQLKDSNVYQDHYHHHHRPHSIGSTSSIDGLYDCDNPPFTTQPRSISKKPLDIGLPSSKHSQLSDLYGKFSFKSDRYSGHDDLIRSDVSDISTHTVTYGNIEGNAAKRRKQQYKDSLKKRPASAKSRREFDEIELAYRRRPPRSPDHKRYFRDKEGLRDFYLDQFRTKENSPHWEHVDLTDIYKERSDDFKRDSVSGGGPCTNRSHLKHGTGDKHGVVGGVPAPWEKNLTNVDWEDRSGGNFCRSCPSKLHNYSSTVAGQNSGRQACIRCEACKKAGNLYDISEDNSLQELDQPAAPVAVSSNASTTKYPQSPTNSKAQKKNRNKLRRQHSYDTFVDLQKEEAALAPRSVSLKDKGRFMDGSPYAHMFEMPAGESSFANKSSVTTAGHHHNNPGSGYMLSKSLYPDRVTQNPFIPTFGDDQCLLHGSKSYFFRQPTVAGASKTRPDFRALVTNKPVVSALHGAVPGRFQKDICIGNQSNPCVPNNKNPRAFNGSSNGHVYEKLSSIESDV
T1 sequence (Q00960 27-1482, other chains not shown): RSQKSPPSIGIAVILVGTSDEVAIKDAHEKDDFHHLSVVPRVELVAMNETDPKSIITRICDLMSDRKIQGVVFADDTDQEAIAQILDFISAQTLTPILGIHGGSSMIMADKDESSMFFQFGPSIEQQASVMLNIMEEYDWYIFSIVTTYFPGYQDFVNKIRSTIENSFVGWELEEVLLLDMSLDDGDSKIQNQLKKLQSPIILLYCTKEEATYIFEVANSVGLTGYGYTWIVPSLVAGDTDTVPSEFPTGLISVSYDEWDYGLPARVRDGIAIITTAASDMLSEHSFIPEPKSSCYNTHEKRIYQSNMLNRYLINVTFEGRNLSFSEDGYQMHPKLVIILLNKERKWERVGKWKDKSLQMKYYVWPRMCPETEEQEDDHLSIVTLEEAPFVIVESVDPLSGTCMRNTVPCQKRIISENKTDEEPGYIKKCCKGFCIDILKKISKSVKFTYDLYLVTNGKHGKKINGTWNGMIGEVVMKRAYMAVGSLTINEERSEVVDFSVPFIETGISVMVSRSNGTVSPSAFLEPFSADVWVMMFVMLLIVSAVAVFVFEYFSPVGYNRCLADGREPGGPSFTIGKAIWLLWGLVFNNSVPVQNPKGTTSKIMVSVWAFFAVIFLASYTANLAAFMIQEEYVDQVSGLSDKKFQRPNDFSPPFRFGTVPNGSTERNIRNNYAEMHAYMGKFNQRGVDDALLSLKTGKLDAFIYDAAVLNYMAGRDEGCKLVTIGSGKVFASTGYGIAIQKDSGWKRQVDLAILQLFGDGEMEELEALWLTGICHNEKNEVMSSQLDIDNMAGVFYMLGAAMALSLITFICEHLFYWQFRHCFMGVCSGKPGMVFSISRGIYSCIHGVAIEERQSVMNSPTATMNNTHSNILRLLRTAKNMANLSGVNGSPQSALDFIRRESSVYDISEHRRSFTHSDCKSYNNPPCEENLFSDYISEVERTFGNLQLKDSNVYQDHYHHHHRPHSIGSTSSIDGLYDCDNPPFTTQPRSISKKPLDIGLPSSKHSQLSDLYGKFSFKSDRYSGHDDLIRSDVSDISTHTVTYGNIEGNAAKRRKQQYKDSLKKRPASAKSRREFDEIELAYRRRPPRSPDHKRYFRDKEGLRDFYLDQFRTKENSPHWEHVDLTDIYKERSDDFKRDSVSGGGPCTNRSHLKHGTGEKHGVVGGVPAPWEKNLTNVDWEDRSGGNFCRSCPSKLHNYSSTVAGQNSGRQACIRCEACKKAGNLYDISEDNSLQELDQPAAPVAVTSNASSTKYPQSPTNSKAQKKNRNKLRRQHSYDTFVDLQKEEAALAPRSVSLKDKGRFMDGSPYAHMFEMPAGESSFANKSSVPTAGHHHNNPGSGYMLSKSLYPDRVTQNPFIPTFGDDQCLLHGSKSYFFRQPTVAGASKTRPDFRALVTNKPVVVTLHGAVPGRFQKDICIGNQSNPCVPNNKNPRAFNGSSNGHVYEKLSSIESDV

Row | Compound | melting point | IC50 [1, 3] [µM] | IC50 [2, 4] [nM] | IC50 [1, 5] [µM] | IC50 [2, 6] [nM]
1 | O=C(NCCC1CCN(c2ccc(Cl)cc2)CC1)c1ccc(=O)[nH]c1 [Compound I-1] | 232 to 234 °C | 0.043 |  |  | 
2 | O=C(NCCC1CCN(c2ccc(C(F)(F)F)cc2)CC1)c1ccc(=O)[nH]c1 [Compound I-2] | 232 to 233 °C (dec.) | 0.033 | 14 |  | 
3 | O=C(NCC1CCN(c2ccc(C(F)(F)F)cc2)CC1)c1ccc(=O)[nH]c1 [Compound I-3] | 283 to 284 °C (dec.) |  |  |  | 
4 | O=C(NC1CCN(c2ccc(Cl)cc2)CC1)c1ccc(=O)[nH]c1 [Compound I-4] | 274 to 275 °C (dec.) |  |  |  | 
5 | O=C(NCCC1CCN(c2ccc(Br)cc2)CC1)c1ccc(=O)[nH]c1 [Compound I-5] | 236 to 238 °C (dec.) | 0.043 | 20 |  | 
6 | O=C(NCCC1CCN(c2ccc(C(F)(F)F)cn2)CC1)c1ccc(=O)[nH]c1 [Compound I-6] | 232 to 234 °C |  | 39 |  | 
7 | O=C(CC1(O)CCN(c2ccc(C(F)(F)F)cn2)CC1)Nc1ccc2[nH]c(=O)oc2c1 [Compound I-61] | 218 to 219 °C |  | 37 |  | 
8 | O=C(CC1CCN(c2ccc(C(F)(F)F)cn2)CC1)Nc1ccc2[nH]c(=O)oc2c1 [Compound I-62] | 229 to 230 °C |  | 92 |  | 
9 | O=C(CC1=CCN(c2ccc(C(F)(F)F)cn2)CC1)Nc1ccc2[nH]c(=O)oc2c1 [Compound I-63] | 236 to 237 °C |  | 79 |  | 
10 | O=C(CC1(O)CCN(c2ccc(C(F)(F)F)cc2)CC1)Nc1ccc2c(c1)CCC(=O)N2 [Compound I-64] | 222 to 223 °C |  |  |  | 
11 | O=C(CC1(O)CCN(c2ccc(C(F)(F)F)cc2)CC1)Nc1ccc2c(c1)CC(=O)N2 [Compound I-65] | 260 to 261 °C |  |  |  | 
12 | O=C(C=C1CCN(c2ccc(C(F)(F)F)cn2)CC1)Nc1ccc2[nH]c(=O)sc2c1 [Compound I-66] | 219 to 220 °C | 0.09 | 25 |  | 
13 | O=C(NCCC1(O)CCN(c2ccc(C(F)(F)F)cn2)CC1)c1cn[nH]c1 [Compound I-67] | 199 to 200 °C |  |  |  | 
14 | CC(=O)c1ccc(N2CCN(C(=O)C(=O)Nc3ccc4[nH]c(=O)oc4c3)CC2)cc1 [Compound I-203] | 264 to 266 °C (dec.) |  |  |  | 
15 | O=C(Nc1ccc2[nH]c(=O)oc2c1)C(=O)N1CCN(c2ccc(Cl)cn2)CC1 [Compound I-204] | 241 to 243 °C |  |  | ≤ 0.1 | 
16 | O=C(C=C1CCN(c2ccc(F)c(Cl)c2)CC1)Nc1ccc2[nH]c(=O)oc2c1 [Compound I-205] | 209 to 211 °C |  |  | ≤ 0.1 | 
17 | C[C@@H]1CN(C(=O)C(=O)Nc2ccc3[nH]c(=O)oc3c2)CCN1c1ccc(F)c(Cl)c1 [Compound I-206] | 107 to 108 °C |  |  | ≤ 0.1 | 
18 | O=C(NCCC1CCN(c2ccc(Cl)c(F)c2)CC1)c1ccc(=O)[nH]c1 [Compound I-208] | 230 to 232 °C |  |  | ≤ 0.1 | ≤ 100
19 | C[C@@H]1CN(C(=O)C(=O)Nc2ccc3[nH]c(=O)oc3c2)CCN1c1ccc(C(F)(F)F)cn1 [Compound I-209] | 197 to 198 °C |  |  | ≤ 0.1 | ≤ 100
20 | C[C@@H]1CN(C(=O)C(=O)Nc2ccc3[nH]c(=O)oc3c2)CCN1c1ccc(Cl)cn1 [Compound I-228] |  |  |  | ≤ 0.1 | ≤ 100
21 | O=C(NCCC1CCN(c2ccc(OC(F)(F)F)cc2)CC1)c1ccc(=O)[nH]c1 [Compound I-230] |  |  |  | ≤ 0.1 | ≤ 100
22 | O=C(Nc1ccc2[nH]c(=O)oc2c1)C(=O)N1CCN(c2ccc(OC(F)F)cc2)CC1 [Compound I-233] |  |  |  | ≤ 0.1 | ≤ 100
23 | O=C(C=C1CCN(c2ccc(OC(F)F)cc2)CC1)Nc1ccc2[nH]c(=O)oc2c1 [Compound I-237] |  |  |  | ≤ 0.1 | ≤ 100
24 | COc1ccc(N2CCC(=CC(=O)Nc3ccc4[nH]c(=O)oc4c3)CC2)cc1F [Compound I-238] |  |  |  | ≤ 0.1 | ≤ 100
25 | COc1ccc(N2CCN(C(=O)C(=O)Nc3ccc4[nH]c(=O)oc4c3)CC2)cc1Cl [Compound I-247] | 224 to 226 °C |  |  | ≤ 0.1 | 
26 | COc1ccc(N2CCN(C(=O)C(=O)Nc3ccc4[nH]c(=O)oc4c3)C[C@H]2C)cc1Cl [Compound I-248] | 118 to 120 °C |  |  |  | 
27 | COc1ccc(N2CCN(C(=O)C(=O)Nc3ccc4[nH]c(=O)oc4c3)[C@H](C)C2)cc1Cl [Compound I-249] | 123 to 125 °C |  |  | ≤ 0.1 | ≤ 100
28 | COc1cc(N2CCN(C(=O)C(=O)Nc3ccc4[nH]c(=O)oc4c3)CC2)ccc1Cl [Compound I-250] | 201 to 203 °C |  |  |  | 
29 | COc1cc(N2CCN(C(=O)C(=O)Nc3ccc4[nH]c(=O)oc4c3)C[C@H]2C)ccc1Cl [Compound I-251] | 122 to 124 °C |  |  |  | 
30 | CCOc1ccc(N2CCN(C(=O)C(=O)Nc3ccc4[nH]c(=O)oc4c3)CC2)cc1F [Compound I-253] | 226 to 228 °C |  |  |  | 

From US7935706B2, “Nitrogen-containing heterocycle derivatives substituted with cyclic group” (Shionogi & Co., Ltd., priority 2006, dated 2011)
